From article PMC10879502, “Linking ATP and allosteric sites to achieve superadditive binding with bivalent EGFR kinase inhibitors” (Communications Chemistry, 2024)

Key:
Type in all cases: binding
Settings in all cases: 1 μM
468 kinases = assay: KINOMEscan selectivity score
AAK1 = biological target: T1, AAK1 (Homo sapiens, UniProt Q2M2I8); assay: KINOMEscan
T1 construct: purchased Eurofins DiscoverX Corporation

[1] = biological target: T2, ABL1(H396P)-phosphorylated (Homo sapiens, UniProt P00519, H396P); assay: KINOMEscan
T2 construct: purchased Eurofins DiscoverX Corporation

[2] = biological target: T3, ABL1(Q252H)-nonphosphorylated (Homo sapiens, UniProt P00519, Q252H); assay: KINOMEscan
T3 construct: purchased Eurofins DiscoverX Corporation

[3] = biological target: T4, ABL1(Q252H)-phosphorylated (Homo sapiens, UniProt P00519, Q252H); assay: KINOMEscan
T4 construct: purchased Eurofins DiscoverX Corporation

ABL1-phosphorylated = biological target: T5, ABL1-phosphorylated (Homo sapiens, UniProt P00519); assay: KINOMEscan
T5 construct: purchased Eurofins DiscoverX Corporation

CAMK2B = biological target: T6, CAMK2B (Homo sapiens, UniProt Q13554); assay: KINOMEscan
T6 construct: purchased Eurofins DiscoverX Corporation (KINOMEscan)

CDK11 = CDK11 (Homo sapiens, UniProt Q9BWU1); assay: KINOMEscan
CSF1R-autoinhibited = CSF1R-autoinhibited (Homo sapiens, UniProt P07333); assay: KINOMEscan
CSNK1A1L = biological target: T7, CSNK1A1L (Homo sapiens, UniProt Q8N752); assay: KINOMEscan
T7 construct: purchased Eurofins DiscoverX Corporation

DDR1 = biological target: T8, DDR1 (Homo sapiens, UniProt Q08345); assay: KINOMEscan
T8 construct: purchased Eurofins DiscoverX Corporation

DDR2 = biological target: T9, DDR2 (Homo sapiens, UniProt Q16832); assay: KINOMEscan
T9 construct: purchased Eurofins DiscoverX Corporation

DRAK1 = biological target: T10, DRAK1 (Homo sapiens, UniProt Q9UEE5); assay: KINOMEscan
T10 construct: purchased Eurofins DiscoverX Corporation

EGFR(E746-A750del) = EGFR(E746-A750del) (Homo sapiens, UniProt P00533, DEL746-750); assay: KINOMEscan
ERK4 = ERK4 (Homo sapiens, UniProt P31152); assay: KINOMEscan
ERN1 = ERN1 (Homo sapiens, UniProt O75460); assay: KINOMEscan
FLT3(ITD) = assay: KINOMEscan
FLT3(ITD+F691L) = assay: KINOMEscan
FLT3(R834Q) = biological target: T11, FLT3(R834Q) (Homo sapiens, UniProt P36888, R834Q); assay: KINOMEscan
T11 construct: purchased Eurofins DiscoverX Corporation

[4] = biological target: T12, JAK1(JH2domain-pseudokinase) (Homo sapiens, UniProt P23458); assay: KINOMEscan
T12 construct: JAK1(JH2domain-pseudokinase); purchased Eurofins DiscoverX (KINOMEscan)

LATS2 = biological target: T13, LATS2 (Homo sapiens, UniProt Q9NRM7); assay: KINOMEscan
T13 construct: purchased Eurofins DiscoverX Corporation

MARK3 = biological target: T14, MARK3 (Homo sapiens, UniProt P27448); assay: KINOMEscan
T14 construct: purchased Eurofins DiscoverX Corporation

MERTK = biological target: T15, MERTK (Homo sapiens, UniProt Q12866); assay: KINOMEscan
T15 construct: purchased Eurofins DiscoverX Corporation

NEK10 = biological target: T16, NEK10 (Homo sapiens, UniProt Q6ZWH5); assay: KINOMEscan
T16 construct: purchased Eurofins DiscoverX Corporation

NEK11 = biological target: T17, NEK11 (Homo sapiens, UniProt Q8NG66); assay: KINOMEscan
T17 construct: purchased Eurofins DiscoverX Corporation

PAK1 = PAK1 (Homo sapiens, UniProt Q13153); assay: KINOMEscan
PIK3CB = PIK3CB (Homo sapiens, UniProt P42338); assay: KINOMEscan
PIP5K2C = PIP5K2C (Homo sapiens, UniProt Q8TBX8); assay: KINOMEscan
PKMYT1 = PKMYT1 (Homo sapiens, UniProt Q99640); assay: KINOMEscan
PLK1 = PLK1 (Homo sapiens, UniProt P53350); assay: KINOMEscan
PRKCE = PRKCE (Homo sapiens, UniProt Q02156); assay: KINOMEscan
PRKG2 = PRKG2 (Homo sapiens, UniProt Q13237); assay: KINOMEscan
RET(V804L) = RET(V804L) (Homo sapiens, UniProt P07949, V804L); assay: KINOMEscan
RIPK1 = RIPK1 (Homo sapiens, UniProt Q13546); assay: KINOMEscan
ROCK1 = ROCK1 (Homo sapiens, UniProt Q13464); assay: KINOMEscan
ROCK2 = ROCK2 (Homo sapiens, UniProt O75116); assay: KINOMEscan
[5] = biological target: RSK1(Kin.Dom.2-C-terminal) (Homo sapiens, UniProt Q15418); assay: KINOMEscan
SYK = biological target: T18, SYK (Homo sapiens, UniProt P43405); assay: KINOMEscan
T18 construct: purchased Eurofins DiscoverX Corporation

TAOK1 = biological target: T19, TAOK1 (Homo sapiens, UniProt Q7L7X3); assay: KINOMEscan
T19 construct: purchased Eurofins DiscoverX Corporation

TLK2 = biological target: T20, TLK2 (Homo sapiens, UniProt Q86UE8); assay: KINOMEscan
T20 construct: purchased Eurofins DiscoverX Corporation

TRKA = biological target: T21, TRKA (Homo sapiens, UniProt P04629); assay: KINOMEscan
T21 construct: purchased Eurofins DiscoverX Corporation

TRKC = biological target: T22, TRKC (Homo sapiens, UniProt Q16288); assay: KINOMEscan
T22 construct: purchased Eurofins DiscoverX Corporation

WNK3 = WNK3 (Homo sapiens, UniProt Q9BYP7); assay: KINOMEscan

PKMYT1, sequence (Q99640 whole entry): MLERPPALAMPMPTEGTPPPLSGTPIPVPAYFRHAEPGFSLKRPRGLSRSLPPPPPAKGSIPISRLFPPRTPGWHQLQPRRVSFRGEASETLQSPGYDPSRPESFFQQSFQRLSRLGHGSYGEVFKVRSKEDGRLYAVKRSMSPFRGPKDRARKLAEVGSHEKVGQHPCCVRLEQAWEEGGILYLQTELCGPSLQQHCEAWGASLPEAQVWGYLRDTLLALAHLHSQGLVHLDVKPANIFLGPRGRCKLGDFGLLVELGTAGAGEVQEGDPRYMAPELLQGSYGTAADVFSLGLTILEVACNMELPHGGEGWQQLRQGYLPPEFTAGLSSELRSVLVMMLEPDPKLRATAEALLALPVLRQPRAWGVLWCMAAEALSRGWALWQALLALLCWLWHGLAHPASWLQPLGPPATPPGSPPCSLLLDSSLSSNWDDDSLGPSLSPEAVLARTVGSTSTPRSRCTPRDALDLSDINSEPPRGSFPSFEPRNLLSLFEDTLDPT
PAK1, sequence (Q13153 whole entry): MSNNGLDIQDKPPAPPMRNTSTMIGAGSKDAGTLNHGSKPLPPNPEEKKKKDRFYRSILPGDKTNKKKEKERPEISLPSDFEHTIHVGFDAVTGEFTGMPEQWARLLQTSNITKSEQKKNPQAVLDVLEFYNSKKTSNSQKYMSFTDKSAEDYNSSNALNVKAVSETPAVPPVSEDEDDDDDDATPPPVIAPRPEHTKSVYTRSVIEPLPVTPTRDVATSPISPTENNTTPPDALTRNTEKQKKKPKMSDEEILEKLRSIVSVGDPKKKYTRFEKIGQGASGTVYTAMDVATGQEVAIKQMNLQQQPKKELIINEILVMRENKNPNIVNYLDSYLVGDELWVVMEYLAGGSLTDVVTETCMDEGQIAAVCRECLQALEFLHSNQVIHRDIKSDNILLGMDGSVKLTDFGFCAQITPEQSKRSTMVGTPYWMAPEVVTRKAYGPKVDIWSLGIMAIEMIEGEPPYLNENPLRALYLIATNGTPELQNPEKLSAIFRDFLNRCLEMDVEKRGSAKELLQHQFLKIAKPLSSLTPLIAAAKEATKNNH
ERK4, sequence (P31152 whole entry): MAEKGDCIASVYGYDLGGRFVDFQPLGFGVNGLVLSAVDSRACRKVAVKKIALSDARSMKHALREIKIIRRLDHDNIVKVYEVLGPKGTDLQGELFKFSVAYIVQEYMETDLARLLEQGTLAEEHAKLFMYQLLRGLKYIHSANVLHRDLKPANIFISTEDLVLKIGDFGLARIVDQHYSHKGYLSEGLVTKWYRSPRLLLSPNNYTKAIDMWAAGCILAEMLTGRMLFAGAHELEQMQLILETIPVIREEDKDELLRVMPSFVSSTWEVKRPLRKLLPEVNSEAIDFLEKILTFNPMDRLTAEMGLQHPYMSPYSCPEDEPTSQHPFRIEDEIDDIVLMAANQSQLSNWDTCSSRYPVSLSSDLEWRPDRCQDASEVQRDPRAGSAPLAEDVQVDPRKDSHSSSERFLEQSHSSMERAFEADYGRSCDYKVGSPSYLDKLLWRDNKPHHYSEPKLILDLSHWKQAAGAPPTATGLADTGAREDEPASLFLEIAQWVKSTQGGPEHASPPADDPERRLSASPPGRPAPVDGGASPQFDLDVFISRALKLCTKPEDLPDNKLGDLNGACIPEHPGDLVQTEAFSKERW
T20 sequence (Q86UE8 whole entry): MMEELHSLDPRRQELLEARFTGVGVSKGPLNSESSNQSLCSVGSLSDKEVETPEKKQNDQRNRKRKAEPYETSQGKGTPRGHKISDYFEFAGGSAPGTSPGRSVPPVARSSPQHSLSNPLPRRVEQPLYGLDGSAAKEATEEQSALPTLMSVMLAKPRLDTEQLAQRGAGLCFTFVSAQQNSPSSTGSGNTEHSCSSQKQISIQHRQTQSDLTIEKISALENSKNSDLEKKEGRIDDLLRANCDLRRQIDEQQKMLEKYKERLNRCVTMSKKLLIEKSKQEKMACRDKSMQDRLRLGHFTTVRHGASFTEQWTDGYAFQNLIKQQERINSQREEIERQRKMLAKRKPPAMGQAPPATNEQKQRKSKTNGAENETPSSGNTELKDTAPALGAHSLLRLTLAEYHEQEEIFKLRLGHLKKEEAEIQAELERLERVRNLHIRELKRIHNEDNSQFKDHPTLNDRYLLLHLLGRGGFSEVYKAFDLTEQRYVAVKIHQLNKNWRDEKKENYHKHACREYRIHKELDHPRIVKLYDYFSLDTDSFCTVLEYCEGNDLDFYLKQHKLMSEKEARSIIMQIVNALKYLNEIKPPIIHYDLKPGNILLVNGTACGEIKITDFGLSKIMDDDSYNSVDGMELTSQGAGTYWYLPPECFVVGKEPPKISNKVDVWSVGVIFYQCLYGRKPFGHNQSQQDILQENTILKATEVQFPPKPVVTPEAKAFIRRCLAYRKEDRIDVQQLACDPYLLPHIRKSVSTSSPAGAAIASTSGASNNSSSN
RIPK1, sequence (Q13546 whole entry): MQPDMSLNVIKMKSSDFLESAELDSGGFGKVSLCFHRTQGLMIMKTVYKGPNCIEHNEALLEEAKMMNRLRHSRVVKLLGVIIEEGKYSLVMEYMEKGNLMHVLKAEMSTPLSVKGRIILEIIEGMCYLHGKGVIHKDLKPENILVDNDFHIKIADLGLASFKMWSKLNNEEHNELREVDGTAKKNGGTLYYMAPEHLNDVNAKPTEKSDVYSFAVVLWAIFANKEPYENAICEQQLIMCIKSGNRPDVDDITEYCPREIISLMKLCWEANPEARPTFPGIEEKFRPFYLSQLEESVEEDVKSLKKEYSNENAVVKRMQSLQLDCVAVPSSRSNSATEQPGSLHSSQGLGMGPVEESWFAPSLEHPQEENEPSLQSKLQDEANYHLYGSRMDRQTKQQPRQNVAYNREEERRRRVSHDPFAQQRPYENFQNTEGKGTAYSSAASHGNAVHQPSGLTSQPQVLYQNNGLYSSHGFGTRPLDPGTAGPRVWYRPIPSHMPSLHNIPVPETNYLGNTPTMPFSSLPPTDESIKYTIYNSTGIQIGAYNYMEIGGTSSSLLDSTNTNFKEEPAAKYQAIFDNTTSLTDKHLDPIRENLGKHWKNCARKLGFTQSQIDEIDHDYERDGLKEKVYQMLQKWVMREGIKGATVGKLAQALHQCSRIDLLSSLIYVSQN
CDK11, sequence (Q9BWU1 whole entry): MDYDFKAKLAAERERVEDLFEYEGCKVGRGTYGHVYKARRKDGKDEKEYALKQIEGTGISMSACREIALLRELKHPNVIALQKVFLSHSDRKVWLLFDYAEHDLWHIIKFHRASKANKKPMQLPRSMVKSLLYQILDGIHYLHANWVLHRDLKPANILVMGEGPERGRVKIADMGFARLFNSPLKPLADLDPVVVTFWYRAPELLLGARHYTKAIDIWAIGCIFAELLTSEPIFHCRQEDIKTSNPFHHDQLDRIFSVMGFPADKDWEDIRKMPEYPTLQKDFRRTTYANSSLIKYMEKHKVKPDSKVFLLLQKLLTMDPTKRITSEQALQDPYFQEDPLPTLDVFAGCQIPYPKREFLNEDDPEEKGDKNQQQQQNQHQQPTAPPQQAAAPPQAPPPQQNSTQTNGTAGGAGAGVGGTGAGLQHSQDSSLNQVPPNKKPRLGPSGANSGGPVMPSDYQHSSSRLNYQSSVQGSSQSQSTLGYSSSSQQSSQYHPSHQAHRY
PLK1, sequence (P53350 whole entry): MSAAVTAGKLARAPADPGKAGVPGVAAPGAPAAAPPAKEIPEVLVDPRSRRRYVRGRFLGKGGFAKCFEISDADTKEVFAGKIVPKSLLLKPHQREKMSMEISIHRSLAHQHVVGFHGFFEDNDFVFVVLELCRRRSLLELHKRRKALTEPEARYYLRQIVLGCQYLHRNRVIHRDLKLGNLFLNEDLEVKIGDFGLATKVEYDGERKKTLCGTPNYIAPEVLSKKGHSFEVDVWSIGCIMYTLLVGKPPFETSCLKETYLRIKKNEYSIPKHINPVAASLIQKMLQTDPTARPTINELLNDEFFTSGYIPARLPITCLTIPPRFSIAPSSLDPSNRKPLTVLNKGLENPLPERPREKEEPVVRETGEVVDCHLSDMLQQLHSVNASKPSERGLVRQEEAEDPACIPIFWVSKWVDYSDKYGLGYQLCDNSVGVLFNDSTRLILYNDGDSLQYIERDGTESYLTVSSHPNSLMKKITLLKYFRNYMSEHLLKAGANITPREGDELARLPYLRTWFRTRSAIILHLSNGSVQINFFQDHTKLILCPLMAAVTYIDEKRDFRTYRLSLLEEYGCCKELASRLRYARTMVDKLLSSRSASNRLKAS
T12 sequence (P23458 583-855 limits assumed): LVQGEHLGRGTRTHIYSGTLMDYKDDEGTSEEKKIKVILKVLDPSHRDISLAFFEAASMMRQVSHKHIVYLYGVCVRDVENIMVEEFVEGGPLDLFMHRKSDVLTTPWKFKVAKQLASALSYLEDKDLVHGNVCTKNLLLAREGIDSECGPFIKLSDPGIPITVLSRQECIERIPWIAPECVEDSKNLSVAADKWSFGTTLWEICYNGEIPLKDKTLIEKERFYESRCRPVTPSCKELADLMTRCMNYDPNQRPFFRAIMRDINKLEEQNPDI
PIP5K2C, sequence (Q8TBX8 whole entry): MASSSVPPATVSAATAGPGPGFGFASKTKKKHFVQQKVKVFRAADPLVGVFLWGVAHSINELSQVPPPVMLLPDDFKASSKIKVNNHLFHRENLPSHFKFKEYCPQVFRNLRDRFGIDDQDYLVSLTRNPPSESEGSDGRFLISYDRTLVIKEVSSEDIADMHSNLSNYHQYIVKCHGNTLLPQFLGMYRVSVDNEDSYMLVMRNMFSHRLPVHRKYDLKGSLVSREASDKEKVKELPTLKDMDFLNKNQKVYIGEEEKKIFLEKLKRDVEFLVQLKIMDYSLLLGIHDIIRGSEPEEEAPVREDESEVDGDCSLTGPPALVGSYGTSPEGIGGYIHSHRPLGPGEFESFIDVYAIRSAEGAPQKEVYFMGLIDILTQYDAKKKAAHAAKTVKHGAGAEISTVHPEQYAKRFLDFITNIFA

C=CC(=O)Nc1ccc(OC)c(Nc2cc(-c3[nH]c(CC)nc3-c3cccc(NC(=O)c4cccc5c4NC(=O)c4ccccc4N5)c3)ccn2)c1 [Compound 4]
selectivity score S(35) (468 kinases): 0.084 | POC (AAK1): 100% of control | POC [1]: 74% of control | POC [2]: 100% of control | POC [3]: 90% of control | POC (ABL1-phosphorylated): 80% of control | POC (CAMK2B): 72% of control | POC (CDK11): 100% of control | POC (CSF1R-autoinhibited): 69% of control | POC (CSNK1A1L): 91% of control | POC (DDR1): 90% of control | POC (DDR2): 100% of control | POC (DRAK1): 84% of control | POC (EGFR(E746-A750del)): 13% of control | POC (ERK4): 100% of control | POC (ERN1): 74% of control | POC (FLT3(ITD)): 100% of control | POC (FLT3(ITD+F691L)): 79% of control | POC (FLT3(R834Q)): 100% of control | POC [4]: 83% of control | POC (LATS2): 62% of control | POC (MARK3): 100% of control | POC (MERTK): 83% of control | POC (NEK10): 86% of control | POC (NEK11): 100% of control | POC (PAK1): 100% of control | POC (PIK3CB): 90% of control | POC (PIP5K2C): 66% of control | POC (PKMYT1): 99% of control | POC (PLK1): 50% of control | POC (PRKCE): 100% of control | POC (PRKG2): 62% of control | POC (RET(V804L)): 99% of control | POC (RIPK1): 100% of control | POC (ROCK1): 100% of control | POC (ROCK2): 94% of control | POC [5]: 75% of control | POC (SYK): 63% of control | POC (TAOK1): 100% of control | POC (TLK2): 87% of control | POC (TRKA): 77% of control | POC (TRKC): 87% of control | POC (WNK3): 78% of control
